Results from PMC3909116 (PLoS ONE, 2014).
Read-outs that look alike come from different tables or passages of the source.

What was measured:
M. tuberculosis = settings: against M. tuberculosis; cited from earlier work
M. tuberculosis H37Rv = format: in vivo
in vivo = assay: in vivo; design: species or system Balb/c mice; settings: male, Balb/c, mouse, po, 30 mg/kg
Procedure: Samples were analyzed by LC-MS.
(A) Mouse survival curves from maximum tolerated dose study. All mice (n = 5) received one dose daily 6 times weekly for 4 weeks. 80% aqueous propylene glycol, (vehicle control).
Half-life and sequential exposure time of drug in serum is critical for its in vivo efficacious activity.

SMILES | MIC (M. tuberculosis) | other results
CO[C@H]1/C=C/O[C@@]2(C)Oc3c(C)c(O)c4c(O)c(c(/C=N/N5CCN(C)CC5)c(O)c4c3C2=O)NC(=O)/C(C)=C\C=C\[C@H](C)[C@H](O)[C@@H](C)[C@@H](O)[C@@H](C)[C@H](OC(C)=O)[C@@H]1C [RMP, rifampicin] | 0.003 µM | reduction of M. tuberculosis bacterial load in the lung (M. tuberculosis H37Rv; in vivo): 0.23 log10; reduction of M. tuberculosis bacterial load in the spleen (M. tuberculosis H37Rv; in vivo): 0.35 log10
NNC(=O)c1ccncc1 [INH, isoniazid] | 0.3 µM | reduction of M. tuberculosis bacterial load in the spleen (M. tuberculosis H37Rv; relative to counts at initiation of chemotherapy (4.26 log10), Balb/c mice, oral once daily 6 times per week for 4 weeks, ND-09759 30 mg/kg, INH 25 mg/kg, RMP 20 mg/kg): 0.38 log10; reduction of M. tuberculosis bacterial load in the lung (M. tuberculosis H37Rv; relative to counts at initiation of chemotherapy (5.18 log10), Balb/c mice, oral once daily 6 times per week for 4 weeks, ND-09759 30 mg/kg, INH 25 mg/kg, RMP 20 mg/kg): 0.27 log10
C[C@]1(COc2ccc(N3CCC(Oc4ccc(OC(F)(F)F)cc4)CC3)cc2)Cn2cc([N+](=O)[O-])nc2O1 [Delamanid] | 0.006 to 0.024 µg/mL | 
CC(=O)NC[C@H]1CN(c2ccc(N3CCOCC3)c(F)c2)C(=O)O1 [Linezolid] | 0.25 to 1 µg/mL | 
Cc1ccn2c(C(=O)NCc3ccc(Oc4ccc(Cl)cc4)cc3)c(C)nc2c1 [ND-09759, N-(4-(4-chlorophenoxy)benzyl)-2,7-dimethylimidazo[1,2-a]pyridine-3-carboxamide] |  | AUC(0-t) (in vivo): 22200 ng·h/mL; Cmax (in vivo): 2900 ng/mL; half-life (in vivo): 20.1 h
CC(C)=CCC/C(C)=C/CNCCNC1C2CC3CC(C2)CC1C3 (centres unmarked) [SQ109] | 0.7 to 1.56 µM | 
COc1nc2ccc(Br)cc2cc1[C@@H](c1ccccc1)[C@@](O)(CCN(C)C)c1cccc2ccccc12 [TMC 207] | 0.030−0.120 µg/ml | 
O=[N+]([O-])c1cn2c(n1)OC[C@@H](OCc1ccc(OC(F)(F)F)cc1)C2 [PA-824] | 0.015 to 0.25 µg/mL | 
